Data from patent US20230019491A1, “PYRIMIDINE TBK/IKKe INHIBITOR COMPOUNDS AND USES THEREOF” (Merck Patent GmbH, priority 2017, published 2023).
Structures can show the parent of a compound that is named as a salt.

Columns and labels:
TBK1 = biological target: T1, TBK1 (Homo sapiens, UniProt Q9UHD2); assay: TBK biochemical assay; conditions: 10 point 1:4 dose response, 30 uM top concentration, 90 min at 25° C., LabChip EZ Reader II; read-out: TBK1_IC50
T1 sequence (Q9UHD2 1-729): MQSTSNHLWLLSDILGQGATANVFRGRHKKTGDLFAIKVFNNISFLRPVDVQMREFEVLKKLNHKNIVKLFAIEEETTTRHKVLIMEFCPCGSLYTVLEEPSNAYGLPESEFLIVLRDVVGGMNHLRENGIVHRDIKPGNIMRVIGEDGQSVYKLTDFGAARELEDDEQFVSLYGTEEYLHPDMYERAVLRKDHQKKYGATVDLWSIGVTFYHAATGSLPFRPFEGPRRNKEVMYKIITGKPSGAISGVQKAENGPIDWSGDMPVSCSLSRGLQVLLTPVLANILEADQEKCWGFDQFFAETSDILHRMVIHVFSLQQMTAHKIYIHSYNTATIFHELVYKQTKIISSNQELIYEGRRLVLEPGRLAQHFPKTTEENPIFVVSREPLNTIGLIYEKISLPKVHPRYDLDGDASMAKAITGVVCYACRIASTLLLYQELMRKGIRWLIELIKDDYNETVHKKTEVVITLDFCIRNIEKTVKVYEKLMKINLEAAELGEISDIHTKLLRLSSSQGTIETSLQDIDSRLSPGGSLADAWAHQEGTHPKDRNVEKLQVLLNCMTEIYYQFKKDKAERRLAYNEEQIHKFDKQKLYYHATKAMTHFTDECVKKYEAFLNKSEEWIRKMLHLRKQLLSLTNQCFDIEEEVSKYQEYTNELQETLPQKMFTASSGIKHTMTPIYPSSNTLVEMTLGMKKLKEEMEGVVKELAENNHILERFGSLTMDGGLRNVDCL
Method in brief: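 Read-out was a Caliper LabChip mobility-shift assay, run after a 90-min, 25 °C reaction of TBK1 with substrate and compounds, quenched with stop buffer. Control wells received staurosporine at 10 uM final.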

IKKε = biological target: T2, IKKε (Homo sapiens, UniProt Q14164); assay: IKKε biochemical assay; conditions: 10 point 1:4 dose response, 30 uM top concentration, 90 min at 25° C., LabChip EZ Reader II; read-out: IKKε_IC50
T2 sequence (Q14164 1-716): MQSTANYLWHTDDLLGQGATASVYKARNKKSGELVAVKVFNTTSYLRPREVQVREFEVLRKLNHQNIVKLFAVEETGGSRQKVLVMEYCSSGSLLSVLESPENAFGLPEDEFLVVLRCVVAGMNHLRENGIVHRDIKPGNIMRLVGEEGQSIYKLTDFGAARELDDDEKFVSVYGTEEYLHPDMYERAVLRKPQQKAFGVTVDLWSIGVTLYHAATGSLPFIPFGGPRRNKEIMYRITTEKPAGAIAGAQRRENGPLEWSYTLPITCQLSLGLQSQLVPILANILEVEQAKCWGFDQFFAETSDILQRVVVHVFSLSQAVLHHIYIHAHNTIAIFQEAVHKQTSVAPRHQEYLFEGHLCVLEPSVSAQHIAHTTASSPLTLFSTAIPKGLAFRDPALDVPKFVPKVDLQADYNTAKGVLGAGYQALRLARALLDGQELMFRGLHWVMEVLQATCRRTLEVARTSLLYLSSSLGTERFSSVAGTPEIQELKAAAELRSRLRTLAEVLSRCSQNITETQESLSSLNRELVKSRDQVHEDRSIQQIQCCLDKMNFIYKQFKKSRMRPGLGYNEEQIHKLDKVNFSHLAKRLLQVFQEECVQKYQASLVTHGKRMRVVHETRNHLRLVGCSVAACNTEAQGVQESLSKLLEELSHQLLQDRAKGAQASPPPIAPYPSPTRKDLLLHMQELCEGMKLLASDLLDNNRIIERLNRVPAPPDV
Method in brief: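 Mobility-shift LabChip read-out followed a 90 min, 25° C. reaction of IKKε with substrate and test compound, with DMSO held at 1% final. Reactions were ended with stop buffer. Wells with 10 uM final staurosporine defined complete inhibition, and DMSO-only wells the uninhibited level.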

IC50 (TBK1) [nM]	IC50 (IKKε) [nM]	Structure (SMILES)
< 100	< 100	COc1nc(Nc2ncc(F)c(-c3ccc(OC4CCN(C(=O)C(C)O)CC4(F)F)c(C#N)c3)n2)ccc1N1CCN(C2COC2)CC1 (centres unmarked) [Example 291, 2-{[33-difluoro-1-(2-hydroxypropanoyl)piperidin-4-yl]oxy}-5-[5-fluoro-2-({6-methoxy-5-[4-(oxetan-3-yl)piperazin-1-yl]pyridin-2-yl}amino)pyrimidin-4-yl]]
< 100	< 100	Cc1cc(N2CCN(C3COC3)CC2)ccc1Nc1nccc(-c2ccc(OC3CCN(C(=O)[C@H](C)O)CC3(F)F)c(C#N)c2)n1 (stereo partly drawn) [Example 310, 2-([3,3-difluoro-1-[(2S)-2-hydroxypropanoyl]piperidin-4-yl]oxy)-5-[2-([2-methyl-4-[4-(oxetan-3-yl)piperazin-1-yl]phenyl]amino)pyrimidin-4-yl]benzonitrile]
100 to 1000	100 to 1000	COc1nccc(Nc2nccc(-c3ccc(OC4CCNCC4(F)F)c(C#N)c3)n2)n1 (centres unmarked) [Example 232, 2-(3,3-Difluoro-piperidin-4-yloxy)-5-[2-(2-methoxy-pyrimidin-4-ylamino)-pyrimidin-4-yl]-benzonitrile]
< 100	< 100	COc1nc(Nc2nccc(-c3ccc(OC4CCOCC4)c(C#N)c3)n2)ccc1C(=O)N1CC2CCC(C1)O2 [Example 10, 5-(2-[[6-methoxy-5-([8-oxa-3-azabicyclo[3.2.1]octan-3-yl]carbonyl)pyridin-2-yl]amino]pyrimidin-4-yl)-2-(oxan-4-yloxy)benzonitrile]
< 100	< 100	COc1nc(Nc2nccc(-c3ccc(OC4CCN(C(=O)[C@H](C)O)CC4(F)F)c(C#N)c3)n2)ccc1C1CCN(C2COC2)CC1 (stereo partly drawn) [Example 152, 2-[3,3-Difluoro-1-((S)-2-hydroxy-propionyl)-piperidin-4-yloxy]-5-[2-(2-methoxy-1′-oxetan-3-yl-1′,2′,3′,4′,5′,6′-hexahydro-[3,4′]bipyridinyl-6-ylamino)-pyrimidin-4-yl]-benzonitrile]
< 100	< 100	COc1nc(Nc2nccc(-c3ccc(O[C@H]4CCNC[C@H]4F)c(C#N)c3)n2)ccc1N1CCN(C2COC2)CC1 [Example 198, 2-[[(3R,4S)-3-fluoropiperidin-4-yl]oxy]-5-[2-([6-methoxy-5-[4-(oxetan-3-yl)piperazin-1-yl]pyridin-2-yl]amino)pyrimidin-4-yl]benzonitrile]
< 100	< 100	COc1nc(Nc2nccc(-c3ccc(OC4CCOCC4)c(C#N)n3)n2)ccc1C(=O)N(C)C [Example 26, 6-([4-[6-cyano-5-(oxan-4-yloxy)pyridin-2-yl]pyrimidin-2-yl]amino)-2-methoxy-N,N-dimethylpyridine-3-carboxamide]
< 100	100 to 1000	COc1nc(Nc2nccc(-c3ccc(OC4(C)CCN(C(=O)[C@H](C)O)CC4)c(C#N)c3)n2)ccc1N1CCN(C2COC2)CC1 [Example 268, 2-[1-((S)-2-Hydroxy-propionyl)-4-methyl-piperidin-4-yloxy]-5-{2-[6-methoxy-5-(4-oxetan-3-yl-piperazin-1-yl)-pyridin-2-ylamino]-pyrimidin-4-yl}-benzonitrile]
100 to 1000	100 to 1000	COc1nc(Nc2nccc(-c3ccc(OC4CCN(C)C4)c(C#N)c3)n2)ccc1C(=O)N(C)C (centres unmarked) [Example 70, 6-[(4-[3-cyano-4-[(1-methylpyrrolidin-3-yl)oxy]phenyl]pyrimidin-2-yl)amino]-2-methoxy-N,N-dimethylpyridine-3-carboxamide hydrochloride]
< 100	< 100	COc1nc(Nc2nccc(-c3ccc(OC4CCOCC4)c(C#N)c3)n2)ccc1N1CCN(C2COC2)CC1 [Example 169, 5-{2-[6-Methoxy-5-(4-oxetan-3-yl-piperazin-1-yl)-pyridin-2-ylamino]-pyrimidin-4-yl}-2-(tetrahydro-pyran-4-yloxy)-benzonitrile]
< 100	< 100	COc1nc(Nc2nccc(-c3ccc(OC4CCOCC4)c(C#N)c3)n2)ccc1C(=O)N1CCNC(=O)C1 [Example 6, 5-{2-[6-methoxy-5-(3-oxo-piperazine-1-carbonyl)-pyridin-2-ylamino]-pyrimidin-4-yl}-2-(tetrahydro-pyran-4-yloxy)-benzonitrile]
< 100	< 100	COc1nc(Nc2nccc(-c3ccc(OC4CCNCC4(F)F)c(C#N)c3)n2)ccc1N1CCN(C2COC2)[C@H](C)C1 (stereo partly drawn) [Example 124, 2-(3,3-Difluoro-piperidin-4-yloxy)-5-{2-[6-methoxy-5-((R)-3-methyl-4-oxetan-3-yl-piperazin-1-yl)-pyridin-2-ylamino]-pyrimidin-4-yl}-benzonitrile]
< 100	< 100	COc1nc(Nc2nccc(-c3ccc(O[C@H]4CCN(C(=O)[C@H](C)O)C[C@@H]4F)c(C#N)c3)n2)ccc1C1CCN(C2COC2)CC1 [Example 189, 2-[(3S,4S)-3-Fluoro-1-((S)-2-hydroxy-propionyl)-piperidin-4-yloxy]-5-[2-(2-methoxy-1′-oxetan-3-yl-1′,2′,3′,4′,5′,6′-hexahydro-[3,4′]bipyridinyl-6-ylamino)-pyrimidin-4-yl]-benzonitrile]
< 100	< 100	COc1nc(Nc2nccc(-c3ccc(OC4CCNCC4(F)F)c(C#N)c3)n2)ccc1C1CCN(C)CC1 (centres unmarked) [Example 144, 2-(3,3-Difluoro-piperidin-4-yloxy)-5-[2-(2-methoxy-1′-methyl-1′,2′,3′,4′,5′,6′-hexahydro-[3,4′]bipyridinyl-6-ylamino)-pyrimidin-4-yl]-benzonitrile]
< 100	< 100	N#Cc1cc(-c2ccnc(Nc3ccc(N4CCN(C5COC5)CC4)cc3)n2)ccc1OC1CCOC1 (centres unmarked) [Example 161, 5-[2-([4-[4-(oxetan-3-yl)piperazin-1-yl]phenyl]amino)pyrimidin-4-yl]-2-(oxolan-3-yloxy)benzonitrile]
100 to 1000	100 to 1000	COc1nc(Nc2ncc(C)c(-c3ccc(O[C@@H]4CCN(C(=O)[C@H](C)O)CC4(F)F)c(C#N)c3)n2)ccc1N1CCN(C2COC2)CC1 [Example 285, 2-[[(4R)-3,3-difluoro-1-[(2S)-2-hydroxypropanoyl]piperidin-4-yl]oxy]-5-[2-([6-methoxy-5-[4-(oxetan-3-yl)piperazin-1-yl]pyridin-2-yl]amino)-5-methylpyrimidin-4-yl]benzonitrile]
> 5000	1000 to 5000	COc1nc(Nc2nccc(-c3cc(C#N)c(OC4CCOCC4)cn3)n2)ccc1C1CCN(C)CC1 [Example 45, 2-(2-[[6-methoxy-5-(1-methylpiperidin-4-yl)pyridin-2-yl]amino]pyrimidin-4-yl)-5-(oxan-4-yloxy)pyridine-4-carbonitrile]
< 100	< 100	COc1nc(Nc2nccc(-c3ccc(O[C@@H]4CCN(C(=O)CO)CC4(F)F)c(C#N)c3)n2)ccc1N1CCN(C)CC1 [Example 101, 2-[[(4R)-3,3-difluoro-1-(2-hydroxyacetyl)piperidin-4-yl]oxy]-5-(2-[[6-methoxy-5-(4-methylpiperazin-1-yl)pyridin-2-yl]amino]pyrimidin-4-yl)benzonitrile]

Structure (SMILES)	IC50 (TBK1) [nM]	IC50 (IKKε) [nM]
COc1nc(Nc2ncc(F)c(-c3ccc(O[C@H]4CCN(C(=O)[C@H](C)O)CC4(F)F)c(C#N)c3)n2)ccc1N1CCN(C2COC2)CC1 [Example 288, 2-[[(4S)-33-difluoro-1-[(2S)-2-hydroxypropanoyl]piperidin-4-yl]oxy]-5-[5-fluoro-2-([6-methoxy-5-[4-(oxetan-3-yl)piperazin-1-yl]pyridin-2-yl]amino)pyrimidin-4-yl]benzonitrile]	< 100	< 100
